pEC50, pIC50: −log10 of the molar value. Where two headings read alike, the source gives them in different places.
How the values were obtained:
Type in all cases: cell-based, human
[1] = tested on: ST486; test: OncoPanel cell proliferation assay, ST486
Protocol: (§1) Cells were grown in RPMI 1640, 10% FBS, 2 mM L-alanyl-L-glutamine, 1 mM Na pyruvate, or a special medium. Cells were seeded into 384-well plates and incubated in a humidified atmosphere of 5% CO2 at 37° C. Compounds were added the day following cell seeding. At the same time, a time zero untreated cell plate was generated. After a 3-day incubation period, cells were fixed and stained to allow fluorescence imaging of nuclei. Compounds (1 mM stock solutions) were serially diluted in half-log steps from the highest test concentration ([…]), and assayed over 10 concentrations with a maximum assay concentration of 0.1% DMSO. Automated fluorescence microscopy was carried out using a Molecular Devices ImageXpress Micro XL high-content imager, and images were collected with a 4× objective. 16-bit TIFF images were acquired and analyzed with MetaXpress 5.1.0.41 software.
(§2) Cell proliferation was measured by the fluorescence intensity of an incorporated nuclear dye. The output is referred to as the relative cell count, where the measured nuclear intensity is transformed to percent of control (POC) using the following formula: […]
(§3) Cellular response parameters were calculated using nonlinear regression to a sigmoidal single-site dose response model:
(§4) EC50 is the test compound concentration at the curve inflection point or half the effective response (parameter C of the fitted curve solution). GI50 is the concentration needed to reduce the observed growth by half (midway between the curve maximum and the time zero value). “Cell Count Activity Area” is an estimate of the integrated area above the curve (Barretina, et al. The Cancer Cell Line Encyclopedia enables predictive modelling of anticancer drug sensitivity. Nature 483: 603-607). […] In rare instances, values <0 or >10 may be observed. […] Curve-fitting, calculations, and report generation was performed using a custom data reduction engine and MathIQ based software (AIM).

[2] = tested on: SW579; test: OncoPanel cell proliferation assay, SW579
Protocol: as §1, §2, §3, §4

[3] = tested on: SNU-5; test: OncoPanel cell proliferation assay, SNU-5
Protocol: as §1, with “Cells” for “Cells were grown in RPMI 1640, 10% FBS, 2 mM L-alanyl-L-glutamine, 1 mM Na pyruvate, or a special medium. Cells”
as §2, §3
(§5) GI50 is the concentration needed to reduce the observed growth by half (midway between the curve maximum and the time zero value). […] In rare instances, values <0 or >10 may be observed. […] Curve-fitting, calculations, and report generation was performed using a custom data reduction engine and MathIQ based software (AIM).

[4] = tested on: Hs 852.T; test: OncoPanel cell proliferation assay, Hs 852.T
Protocol: as §1, §2, §3, §4

[5] = tested on: A388; test: OncoPanel cell proliferation assay, A388
Protocol: as §1, with “Cells” for “Cells were grown in RPMI 1640, 10% FBS, 2 mM L-alanyl-L-glutamine, 1 mM Na pyruvate, or a special medium. Cells”
as §2, §3, §5

[6] = tested on: U-138MG; test: OncoPanel cell proliferation assay, U-138MG
Protocol: as §1, §2, §3, §4

[7] = Homo sapiens, read-out: Cell Count EC50
[8] = Homo sapiens, read-out: Cell Count GI50
[9] = Homo sapiens, read-out: Cell Count IC50

CO[C@H]1C[C@@H]2CC[C@@H](C)[C@@](O)(O2)C(=O)C(=O)N2CCCC[C@H]2C(=O)O[C@H]([C@H](C)C[C@H]2C[C@H]3C[C@@H]2C[C@@H]3O)CC(=O)[C@H](C)/C=C(\C)[C@@H](O)[C@@H](OC)C(=O)[C@H](C)C[C@H](C)/C=C/C=C/C=C/1C [Formula II, C37-[(1R,2S,4R,5S)-5-hyhroxybicyclo[2.2.1]heptane] rapamycin]
Cell Count Activity Area [1]: 3.05
Relative cell count (%) Mean ([1]; 1.00E+00 microM): 55.2%
Relative cell count (%) Mean ([1]; 1.00E-01 microM): 56.2%
Relative cell count (%) Mean ([1]; 1.00E-02 microM): 57.6%
Relative cell count (%) Mean ([1]; 1.00E-03 microM): 72.7%
Relative cell count (%) Mean ([1]; 1.01E-04 microM): 90.5%
Relative cell count (%) Mean ([1]; 3.16E-01 microM): 49.9%
Relative cell count (%) Mean ([1]; 3.17E-02 microM): 55.2%
Relative cell count (%) Mean ([1]; 3.17E-03 microM): 58.2%
Relative cell count (%) Mean ([1]; 3.18E-04 microM): 77.5%
Relative cell count (%) Mean ([1]; 3.18E-05 microM): 92.2%
pEC50 [1, 7]: 9.24
GI50 [1, 8]: 1.17 nM
pIC50 [1, 9]: < 6.00
Cell Count Activity Area [2]: 4.51
Relative cell count (%) Mean ([2]; 1.00E+00 microM): 43.1%
Relative cell count (%) Mean ([2]; 1.00E-01 microM): 43.4%
Relative cell count (%) Mean ([2]; 1.00E-02 microM): 51.1%
Relative cell count (%) Mean ([2]; 1.00E-03 microM): 64.1%
Relative cell count (%) Mean ([2]; 1.01E-04 microM): 82.8%
Relative cell count (%) Mean ([2]; 3.16E-01 microM): 40.8%
Relative cell count (%) Mean ([2]; 3.17E-02 microM): 49.9%
Relative cell count (%) Mean ([2]; 3.17E-03 microM): 50.2%
Relative cell count (%) Mean ([2]; 3.18E-04 microM): 66.2%
Relative cell count (%) Mean ([2]; 3.18E-05 microM): 86.0%
pEC50 [2, 7]: 9.69
GI50 [2, 8]: 1.06 nM
pIC50 [2, 9]: 8.34
Cell Count Activity Area [3]: 1.85
Relative cell count (%) Mean ([3]; 1.00E+00 microM): 67.1%
Relative cell count (%) Mean ([3]; 1.00E-01 microM): 71.9%
Relative cell count (%) Mean ([3]; 1.00E-02 microM): 82.9%
Relative cell count (%) Mean ([3]; 1.00E-03 microM): 95.6%
Relative cell count (%) Mean ([3]; 1.01E-04 microM): 101.2%
Relative cell count (%) Mean ([3]; 3.16E-01 microM): 70.4%
Relative cell count (%) Mean ([3]; 3.17E-02 microM): 76.3%
Relative cell count (%) Mean ([3]; 3.17E-03 microM): 84.9%
Relative cell count (%) Mean ([3]; 3.18E-04 microM): 95.6%
Relative cell count (%) Mean ([3]; 3.18E-05 microM): 101.0%
pEC50 [3, 7]: 8.25
GI50 [3, 8]: 168 nM
pIC50 [3, 9]: < 6.00
Cell Count Activity Area [4]: 0.95
Relative cell count (%) Mean ([4]; 1.00E+00 microM): 72.0%
Relative cell count (%) Mean ([4]; 1.00E-01 microM): 80.1%
Relative cell count (%) Mean ([4]; 1.00E-02 microM): 91.2%
Relative cell count (%) Mean ([4]; 1.00E-03 microM): 92.9%
Relative cell count (%) Mean ([4]; 1.01E-04 microM): 98.7%
Relative cell count (%) Mean ([4]; 3.16E-01 microM): 73.2%
Relative cell count (%) Mean ([4]; 3.17E-02 microM): 82.3%
Relative cell count (%) Mean ([4]; 3.17E-03 microM): 90.6%
Relative cell count (%) Mean ([4]; 3.18E-04 microM): 92.8%
Relative cell count (%) Mean ([4]; 3.18E-05 microM): 95.0%
pEC50 [4, 7]: < 6.00
GI50 [4, 8]: > 1000 nM
pIC50 [4, 9]: < 6.00
Cell Count Activity Area [5]: 1.60
Relative cell count (%) Mean ([5]; 1.00E+00 microM): 62.7%
Relative cell count (%) Mean ([5]; 1.00E-01 microM): 65.6%
Relative cell count (%) Mean ([5]; 1.00E-02 microM): 79.8%
Relative cell count (%) Mean ([5]; 1.00E-03 microM): 80.8%
Relative cell count (%) Mean ([5]; 1.01E-04 microM): 95.5%
Relative cell count (%) Mean ([5]; 3.16E-01 microM): 62.3%
Relative cell count (%) Mean ([5]; 3.17E-02 microM): 66.7%
Relative cell count (%) Mean ([5]; 3.17E-03 microM): 79.0%
Relative cell count (%) Mean ([5]; 3.18E-04 microM): 87.7%
Relative cell count (%) Mean ([5]; 3.18E-05 microM): 86.5%
pEC50 [5, 7]: 8.08
GI50 [5, 8]: > 1000 nM
pIC50 [5, 9]: < 6.00
pEC50 ([6]; Homo sapiens, U138-MG, U-138 MG, CNS, Glioblastoma, summary Table 5, read-out: EC50): 8.85
pEC50 ([6]; Homo sapiens, U138-MG, U-138MG, read-out: Cell Count EC50): 8.84
GI50 ([6]; Homo sapiens, U138-MG, U-138MG, read-out: Cell Count GI50): 23 nM
pIC50 ([6]; Homo sapiens, U138-MG, U-138MG, read-out: Cell Count IC50): < 6.00
Cell Count Activity Area ([6]; U-138MG): 2.59
Relative cell count (%) Mean ([6]; U-138MG, 1.00E+00 microM): 60.4%
Relative cell count (%) Mean ([6]; U-138MG, 1.00E-01 microM): 67.9%
Relative cell count (%) Mean ([6]; U-138MG, 1.00E-02 microM): 76.4%
Relative cell count (%) Mean ([6]; U-138MG, 1.00E-03 microM): 74.8%
Relative cell count (%) Mean ([6]; U-138MG, 1.01E-04 microM): 87.7%
Relative cell count (%) Mean ([6]; U-138MG, 3.16E-01 microM): 65.0%
Relative cell count (%) Mean ([6]; U-138MG, 3.17E-02 microM): 69.1%
Relative cell count (%) Mean ([6]; U-138MG, 3.17E-03 microM): 73.8%
Relative cell count (%) Mean ([6]; U-138MG, 3.18E-04 microM): 78.5%
Relative cell count (%) Mean ([6]; U-138MG, 3.18E-05 microM): 87.8%
